From patent US20260102344A1, “METERED DOSE INHALERS AND SUSPENSION COMPOSITIONS” (Kindeva Drug Delivery L.P., priority 2021, published 2026)
≈ marks a conversion by molar mass, not a printed value.

Assays:
Assay type in all cases: physicochemical
[1] = Mometasone solubility in HFO-1234ze(E) (Example 10)
[2] = Saturated solubility, mometasone furoate in HFO-1234ze(E) (Example 11)
Protocol: Suspensions of micronized mometasone furoate were prepared in HFO-1234ze(E). […]. A second suspension included 0.5% ethanol by weight. A third suspension included 1% ethanol by weight. A fourth suspension included 2% ethanol by weight.
Devices were prepared by weighing mometasone furoate in FEP coated canisters fitted with a 50-μL valve, a Mk6s actuator, and dose counter. The valve was crimped on, and the propellant was pressure filled through the valve. The units were sonicated for 10 minutes to fully disperse the mometasone furoate. Through life dosing was tested for each suspension 3 units with the Mk6s actuator having 0.5-mm exit orifice and 0.8-mm jet length. Saturated solubility was also measured for each suspension. The results are shown in Example 10.

[3] = Delivered dose and particle size measurement, salbutamol sulfate in HFO-1234ze(E); conditions: HFO-1234ze(E) suspension 1.91 mg/mL, nominal 100 μg/actuation, 63-μL valve, 0.4 mm actuator
Protocol: A first suspension included no ethanol. […] A fifth suspension included 15% ethanol by weight. […] Each suspension was filled into FEP coated canisters, crimped with a 63-μL valve and tested with a […] actuator having an exit orifice diameter of 0.4 mm for testing. The fine particle mass (FPM), median mass aerodynamic diameter (MMAD), fine particle fraction (FPF), metered dose (ex-valve), and delivered dose (ex-act) were measured for each suspension.

[4] = Delivered dose and fine particle mass, salbutamol sulfate in HFO-1234ze(E) with 5.0% or 15% ethanol; conditions: HFO-1234ze(E) suspension 1.91 mg/mL, 63-μL APTAR, mean of triplicate
Protocol: Each suspension was filled into FEP coated canisters, crimped with a valve, and coupled to […] actuator for testing. Fine particle mass and delivered dose were measured for each suspension.

[5] = Aerodynamic particle size measurement, fluticasone propionate in HFO-1234ze(E); conditions: HFO-1234ze(E) suspension 2 mg/mL, 50-μL valve, 0.5 mm actuator
Protocol: Suspensions of micronized fluticasone propionate were prepared in HFO-1234ze(E). The nominal concentration of fluticasone propionate in each suspension was 2 mg/mL. A first suspension included 0% ethanol. A second suspension included 2% ethanol by weight. A third suspension included 5% ethanol by weight. A fourth suspension included 10% ethanol by weight.
Each suspension was filled into an FEP-coated canister and fitted with a 50-μL valve. The suspensions were sonicated for 10 minutes to disperse the fluticasone propionate. The suspensions were tested using a KINDEVA actuator with a 0.5 mm exit orifice diameter.
For each suspension, FPM, median mass aerodynamic diameter (MMAD), FPF, metered dose (ex-valve), and delivered dose (ex-actuator) were measured.

[6] = Fine particle fraction by Fast Screening Impactor (FSI), fluticasone propionate in HFO-1234ze(E) without ethanol; conditions: HFO-1234ze(E) suspension 2 mg/mL, no ethanol
Protocol: A suspension of micronized fluticasone propionate was prepared in HFO-1234ze(E) with no additional excipients, including ethanol. Each suspension included an amount of fluticasone propionate (2 mg/mL) to provide a nominal dose of […]. Each suspension was filled into FEP coated canisters and crimped with a metering valve and tested with a KINDEVA actuator.
When tested with KINDEVA actuators with exit orifice diameters of 0.3 mm, 0.22 mm, and 0.18 mm using a Fast Screening Impactor (FSI), it was observed that corresponding FPF of 35%, 43%, and 50% were achieved.

[7] = Saturated solubility of fluticasone propionate in HFO-1234ze(E) with ethanol; conditions: saturated solubility in HFO-1234ze(E), no additional excipients; for solubility: HFO-1234ze(E) propellant with ethanol, organic solvent or mixture, thermodynamic from solid
Protocol: The solubility of fluticasone propionate in each suspension was measured by content assay following filtration of the excess non-dissolved drug.

## C[C@@H]1C[C@H]2[C@@H]3CCC4=CC(=O)C=C[C@]4(C)[C@@]3(Cl)[C@@H](O)C[C@]2(C)[C@@]1(OC(=O)c1ccco1)C(=O)CCl [mometasone furoate]
[1]; ethanol 0% by weight
  Mean mometasone solubility: 0.8 µg/mL
[1]; ethanol 1% by weight
  Mean mometasone solubility: 7.6 µg/mL
[2]; ethanol 0%
  Saturated solubility: 0.8 µg/mL
[2]; ethanol 2%
  Saturated solubility: 7.6 µg/mL

## salbutamol sulfate
[3]; ethanol 0% by weight
  FPF (fine particle fraction): 57.5%
  FPM (fine particle mass): 45.3 μg/act
  MMAD (median mass aerodynamic diameter): 1.9 μm
[3]; ethanol 2% by weight
  FPF (fine particle fraction): 48.5%
  FPM (fine particle mass): 45.9 μg/act
  MMAD (median mass aerodynamic diameter): 2.0 μm
[3]; ethanol 5% by weight
  FPF (fine particle fraction): 39.1%
  FPM (fine particle mass): 36.8 μg/act
  MMAD (median mass aerodynamic diameter): 1.9 μm
[3]; ethanol 10% by weight
  FPF (fine particle fraction): 27.6%
  FPM (fine particle mass): 25.4 μg/act
  MMAD (median mass aerodynamic diameter): 2.0 μm
[3]; ethanol 15% by weight
  FPF (fine particle fraction): 19.6%
  FPM (fine particle mass): 18.5 μg/act
  MMAD (median mass aerodynamic diameter): 2.0 μm
[4]; ethanol 5.0%
  Fine particle fraction: 38%
[4]; ethanol 15%
  Fine particle fraction: 20%

## CCC(=O)O[C@]1(C(=O)SCF)[C@H](C)C[C@H]2[C@@H]3C[C@H](F)C4=CC(=O)C=C[C@]4(C)[C@@]3(F)[C@@H](O)C[C@@]21C [fluticasone propionate]
[5]; ethanol 0% by weight
  FPF: 60.6%
  FPM: 5.3 μg/actuation
  MMAD: 5.0 μm
[5]; ethanol 2% by weight
  FPF: 43.8%
  FPM: 30.0 μg/actuation
  MMAD: 5.4 μm
[5]; ethanol 5% by weight
  FPF: 28.9%
  FPM: 27.9 μg/actuation
  MMAD: 2.4 μm
[5]; ethanol 10% by weight
  FPF: 19.6%
  FPM: 18.7 μg/actuation
  MMAD: 2.1 μm
[6]; actuator exit orifice 0.18 mm
  FPF: 50%
[6]; actuator exit orifice 0.22 mm
  FPF: 43%
[6]; actuator exit orifice 0.3 mm
  FPF: 35%
[7]; ethanol 0% by weight
  solubility: 3.2 µg/mL (≈ 6.39 µM)
[7]; ethanol 2% by weight
  solubility: 30.3 µg/mL (≈ 60.5 µM)
[7]; ethanol 5% by weight
  solubility: 135 µg/mL (≈ 269 µM)
[7]; ethanol 1% by weight
  Mean fluticasone propionate solubility: 12.4 µg/mL
[7]; ethanol 10% by weight
  Mean fluticasone propionate solubility: 367.5 µg/mL
